According to patent US8883782B2, “Spiro-tetracyclic ring compounds as beta-secretase modulators and methods of use” (Amgen Inc., priority 2010, dated 2014):
Where two headings read alike, the source gives them in different places.

Assays:
[1] = biological target: Beta Secretase enzyme (BACE) (Homo sapiens, UniProt P56817); test: In vitro enzymatic BACE FRET (fluorescence resonance energy transfer) assay; format: biochemical; details: average IC50, enzyme assay; read-out: BACE 1 FRET assay
Summary of the method: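 Cleavage of a 50 nM fluorophore/quencher peptide FRET substrate by BACE for 1 h in 0.05 M acetate pH 4.2, 10% DMSO, 100 uM genapol. Reaction stopped with Tris to neutral pH before fluorescence reading.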

[2] = system: Aβ40 in conditioned medium of cells stably expressing Amyloid Precursor Protein (APP); test: In vitro BACE cell-based assay (Aβ40 in conditioned medium, sandwich ELISA); details: read-out: HEK cell assay
Summary of the method: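 Secreted Aβ40 is captured with pAb40 and detected with biotinylated 6E10, read by europium time-resolved fluorescence. IC50 comes from percent inhibition versus concentration.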

[3] = Homo sapiens, HEK293, average IC50
[4] = Homo sapiens, HEK293, average IC50, HEK cells

Chain of Beta Secretase enzyme (BACE) (P56817 46-501, species assumed): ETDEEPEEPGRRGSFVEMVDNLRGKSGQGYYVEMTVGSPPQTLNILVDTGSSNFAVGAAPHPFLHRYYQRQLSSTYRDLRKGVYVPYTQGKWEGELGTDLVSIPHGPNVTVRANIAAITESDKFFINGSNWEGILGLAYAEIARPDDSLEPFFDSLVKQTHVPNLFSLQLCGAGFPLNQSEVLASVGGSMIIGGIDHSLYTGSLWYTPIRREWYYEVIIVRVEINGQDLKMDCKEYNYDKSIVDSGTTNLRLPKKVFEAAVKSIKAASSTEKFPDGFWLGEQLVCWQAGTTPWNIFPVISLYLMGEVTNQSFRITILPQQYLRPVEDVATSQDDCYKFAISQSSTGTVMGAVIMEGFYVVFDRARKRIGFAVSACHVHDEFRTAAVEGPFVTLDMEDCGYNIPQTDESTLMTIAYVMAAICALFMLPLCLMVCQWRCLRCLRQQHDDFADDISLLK

Compound | IC50 [1] | IC50 [2, 3] | IC50 [2, 4] | IC50 ([2]; average IC50) | IC50 ([2]; average IC50, HEK cells)
CC1(C)C=C(c2cnc3c(c2)[C@]2(CSC(N)=N2)c2cc(-c4ccc(F)c(C#N)c4)ccc2O3)CCO1 [Example 784, 5-((5S)-2′-amino-3-(6,6-dimethyl-3,6-dihydro-2H-pyran-4-yl)spiro[chromeno[2,3-b]pyridine-5,4′-[1,3]thiazol]-7-yl)-2-fluorobenzonitrile] | 1.4 nM | 15 nM |  |  | 
CC1(C#Cc2ccc3c(c2)[C@@]2(COC(N)=N2)c2cc(C4=CCOCC4)cnc2O3)COC1 [Example 462, (5S)-3-(3,6-dihydro-2H-pyran-4-yl)-7-((3-methyl-3-oxetanyl)ethynyl)spiro[chromeno[2,3-b]pyridine-5,4′-[1,3]oxazol]-2′-amine] | 5.9 nM |  | 18.9 nM |  | 
Cc1cncc(-c2ccc3c(c2)[C@@]2(COC(N)=N2)c2cc(-c4ccnc(C#N)c4)ncc2O3)c1 [Example 141, 4-((5S)-2′-amino-7-(5-methyl-3-pyridinyl)spiro[chromeno[2,3-c]pyridine-5,4′-[1,3]oxazol]-3-yl)-2-pyridinecarbonitrile] | 17.4 nM | 114 nM |  |  | 
COCC1SC(N)=NC12c1cc(-c3cccnc3F)ccc1Oc1c(F)cc(OC)cc12 [Example 1089, (4S/R,5S)-4′-fluoro-7′-(2-fluoropyridin-3-yl)-2′-methoxy-5-(methoxymethyl)-5H-spiro[thiazole-4,9′-xanthen]-2-amine] | 3.3 nM |  |  | 923 nM | 
NC1=N[C@@]2(CO1)c1cc(OCc3ccccc3)ccc1Oc1ncc(C3=CCOCC3)cc12 [Example 967, (5S)-7-(benzyloxy)-3-(3,6-dihydro-2H-pyran-4-yl)spiro[chromeno[2,3-b]pyridine-5,4′-[1,3]oxazol]-2′-amine] | 44.4 nM |  | 463 nM |  | 
CC1(C#Cc2cnc3c(c2)[C@]2(COC(N)=N2)c2cc(-c4cncc(F)c4)c(F)cc2O3)COC1 [Example 623, (5S)-8-fluoro-7-(5-fluoro-3-pyridinyl)-3-((3-methyl-3-oxetanyl)ethynyl)spiro[chromeno[2,3-b]pyridine-5,4-[1,3]oxazol]-2′-amine] | 0.9 nM |  | 9 nM |  | 
NC1=N[C@@]2(CO1)c1cc(-c3cccnc3F)ccc1Oc1cnc(-c3ccc(F)c(F)c3)cc12 [Example 534, (5S)-3-(3,4-difluorophenyl)-7-(2-fluoro-3-pyridinyl)spiro[chromeno[2,3-c]pyridine-5,4′-[1,3]oxazol]-2′-amine] | 0.5 nM |  | 26.6 nM |  | 
NC1=N[C@]2(CO1)c1cc(-c3cccnc3F)c(F)cc1Oc1c(F)cc(C3=CCOCC3)cc12 [Example 868, (4R)-7′-(3,6-dihydro-2H-pyran-4-yl)-3′,5′-difluoro-2′-(2-fluoro-3-pyridinyl)spiro[1,3-oxazole-4,9′-xanthen]-2-amine] | 52.1 nM |  | 1130 nM |  | 
COc1cc2c(c(F)c1F)Oc1ccc(-c3cccnc3F)cc1[C@]21COC(N)=N1 [Example 1004, (4R)-3′,4′-difluoro-7′-(2-fluoro-3-pyridinyl)-2′-methoxyspiro[1,3-oxazole-4,9′-xanthen]-2-amine] | 5560 nM | ≥ 10000 nM |  |  | 
Cc1cc(-c2cc3c(cn2)Oc2ccc(-c4cccnc4F)cc2[C@@]32COC(N)=N2)on1 [Example 364, (5S)-7-(2-fluoro-3-pyridinyl)-3-(3-methyl-5-isoxazolyl)spiro[chromeno[2,3-c]pyridine-5,4′-[1,3]oxazol]-2′-amine] | 6.9 nM | 62.5 nM |  |  | 
NC1=N[C@@]2(CO1)c1cc(-c3ccc(F)nc3)ccc1Oc1cnc(C3CCOCC3)cc12 [Example 363, (5S)-7-(6-fluoro-3-pyridinyl)-3-(tetrahydro-2H-pyran-4-yl)spiro[chromeno[2,3-c]pyridine-5,4′-[1,3]oxazol]-2′-amine] | 33.7 nM | 270 nM |  |  | 
C[C@@H]1CN(c2cc(F)c3c(c2)[C@]2(COC(N)=N2)c2cc(-c4cccnc4F)ccc2O3)C[C@H](C)O1 [Example 303, (4S)-2′-((2R,6S)-2,6-dimethyl-4-morpholinyl)-4′-fluoro-7′-(2-fluoro-3-pyridinyl)spiro[1,3-oxazole-4,9′-xanthen]-2-amine] | 2 nM | 6.7 nM |  |  | 
COc1ccc(-c2cnc3c(c2)[C@]2(CSC(N)=N2)c2cc(C#CC4(C)COC4)ccc2O3)cn1 [Example 941, (5S)-3-(6-methoxy-3-pyridinyl)-7-((3-methyl-3-oxetanyl)ethynyl)spiro[chromeno[2,3-b]pyridine-5,4′-[1,3]thiazol]-2′-amine] | 3.8 nM |  | 97 nM |  | 
CC1(C#Cc2ccc3c(c2)[C@@]2(COC(N)=N2)c2cc(C4=CCOCC4)ncc2O3)COC1 [Example 160, (5S)-3-(3,6-dihydro-2H-pyran-4-yl)-7-((3-methyl-3-oxetanyl)ethynyl)spiro[chromeno[2,3-c]pyridine-5,4′-[1,3]oxazol]-2′-amine] | 22 nM | 91 nM |  |  | 
NC1=N[C@@]2(CS1)c1cc(-c3cncc(F)c3)ccc1Oc1cnc(C3=CCOCC3)cc12 [Example 592, (5S)-3-(3,6-dihydro-2H-pyran-4-yl)-7-(5-fluoro-3-pyridinyl)spiro[chromeno[2,3-c]pyridine-5,4′-[1,3]thiazol]-2′-amine] | 0.9 nM |  |  |  | 21.3 nM
NC1=N[C@@]2(CO1)c1cc(Oc3cccc(Cl)n3)ccc1Oc1c(F)cc(C3=CCOCC3)cc12 [Example 725, (4S)-7′-((6-chloro-2-pyridinyl)oxy)-2′-(3,6-dihydro-2H-pyran-4-yl)-4′-fluorospiro[1,3-oxazole-4,9′-xanthen]-2-amine] | 22.7 nM | 1920 nM |  |  | 
COc1ncc(-c2ccc3c(c2)[C@@]2(COC(N)=N2)c2cc(N4CC[C@@H](F)C4)ncc2O3)cn1 [Example 417, (5S)-3-((3R)-3-fluoro-1-pyrrolidinyl)-7-(2-methoxy-5-pyrimidinyl)spiro[chromeno[2,3-c]pyridine-5,4′-[1,3]oxazol]-2′-amine] | 84.5 nM |  | 336 nM |  | 
NC1=N[C@@]2(CO1)c1cc(-c3ccncc3F)ccc1Oc1cnc(-c3cccnc3F)cc12 [Example 574, (5S)-3-(2-fluoro-3-pyridinyl)-7-(3-fluoro-4-pyridinyl)spiro[chromeno[2,3-c]pyridine-5,4′-[1,3]oxazol]-2′-amine] | 856 nM |  | 2230 nM |  | 
(4S)-4′-fluoro-7′-(2-fluoro-3-pyridinyl)-2′-((3R)-3-methyl-1-pyrrolidinyl)spiro[1,3-oxazole-4,9′-xanthen]-2-amine, (4S)-4′-fluoro-7′-(2-fluoro-3-pyridinyl)-2′-((3S)-3-methyl-1-pyrrolidinyl)spiro[1,3-oxazole-4,9′-xanthen]-2-amine [Example 1055] | 0.4 nM |  |  | 33 nM | 
CC1(C)C[C@H](c2cnc3c(c2)[C@]2(COC(N)=N2)c2cc(-c4cncc(Cl)c4)ccc2O3)CCO1 [Example 475, (5S)-7-(5-chloro-3-pyridinyl)-3-((4R)-2,2-dimethyltetrahydro-2H-pyran-4-yl)spiro[chromeno[2,3-b]pyridine-5,4′-[1,3]oxazol]-2′-amine] | 2.2 nM |  | 7.3 nM |  | 
Cn1cc(-c2cnc3c(c2)[C@]2(CSC(N)=N2)c2cc(-c4ccc(F)nc4)ccc2O3)cn1 [Example 962, (5S)-7-(6-fluoro-3-pyridinyl)-3-(1-methyl-1H-pyrazol-4-yl)spiro[chromeno[2,3-b]pyridine-5,4′-[1,3]thiazol]-2′-amine] | 5.4 nM |  | 65 nM |  | 
